{"source": "patent US20200345746A1", "about": "“Oxazine Derivative for Use in the Prevention of Alzheimer's Disease in at Risk Patents” (Novartis AG, priority 2016, published 2020)", "key": {"Aβ42 [1]": {"system": "Aβ42", "assay": "First-in-human study: Aβ42 in CSF", "assay_type": "in vivo", "details": "2 weeks", "description": "(§1) The purpose of this study was to determine the single and multiple maximum tolerated dose of Compound 1 and to assess the pharmacokinetic/pharmacodynamic (PK/PD) relationship using Aβ in CSF as primary PD biomarker.\nIn the completed first-in-human and 3-month dose-ranging safety and tolerability clinical studies described in Examples 5 and 6, Aβ concentrations in CSF were obtained by means of lumbar punctures before the first dose (baseline) and respectively after 2 weeks and 3 months of multiple dosing. ApoE4 genotype also was obtained in the subjects who consented. The percent change from baseline in Aβ40 and Aβ42 concentrations was calculated in subjects who took the study treatment and had no major protocol deviation with potential impact on the evaluation of the pharmacodynamic effect. Tables 18 to 21 below provide summary statistics of the percent change from baseline by treatment group and ApoE genotype (E4 heterozygotes versus E4 non-carriers). Only one subject with CSF data was E4 homozygote (from the 3-month dose-ranging safety and tolerability study)."}, "[2]": {"assay": "First-in-human study: safety and tolerability", "assay_type": "in vivo", "details": "healthy elderly subjects", "description": "as §1"}, "sAPPα": {"system": "sAPPα", "assay": "Triton TX-100 soluble sAPPα in APP23 mouse brain", "assay_type": "in vivo", "details": "APP23 mice", "procedure": "(§2) Frozen mouse forebrains were weighed and homogenized in 9 volumes (w/v) of ice-cold TBS-Complete (20 mM Tris-HCl pH 7.4, 137 mM NaCl, 1× Complete [Protease Inhibitor Cocktail Tablets: 1 836 145, Roche Diagnostics GmbH, Penzberg, Germany]) by sonication (90% duty cycle, output control 5, 40-55 pulses, [Sonifier 450, Branson]). After homogenization several 50 μl aliquots were prepared for analysis and were stored at −80° C.\nBrain homogenates were extracted with 1% Triton X-100 in buffer and the resulting supernatant was considered to represent soluble forms of APP metabolites. In addition to Aβ40 and 42, we determined the N-terminal APP fragments sAPPα (direct cleavage product of α-secretase) and sAPPβ (Swe) (direct product of BACE1 cleavage). […] Since no change in the APP expression and Aβ generation is known to happen during this age, it is assumed that the increased values in the vehicle group (18-20 mo old) arise from “leakage” out of the Aβ deposits (which increase several fold, see below)."}, "Aβ42 [3]": {"system": "Aβ42", "assay": "Formic acid soluble Aβ42 in APP23 mouse forebrain", "assay_type": "in vivo", "procedure": "as §2\nFifty microliter of forebrain homogenate was mixed with 116.6 μl 100% formic acid, resulting in a final formic acid concentration of 70%. Samples were stored on ice and vortexed every 5 minutes. For neutralization, 50 μl of the mixture were pipetted into a new tube, and 950 μl of 1 M Tris base, containing 1× Complete Protease inhibitor, was added. Tubes were stored at room temperature overnight and then centrifuged for 15 minutes at 14000 rpm in an Eppendorf Microzentrifuge at 4° C. From the top layer, 100 μl are removed and mixed with 100 μl of 3% Blocker A solution (part of the MesoScale assay kit). This sample was either directly applied to the assay plate (dilution 1:1332) or further diluted in 1% Blocker A solution."}, "IBA1 positive microglia": {"system": "IBA1 positive microglia", "assay": "IBA1 positive microglia in APP23 mice", "assay_type": "in vivo, mouse", "details": "for Distal IBA1+ area / Non-plaque-associated IBA1+ area* / Plaque-associated IBA1+ area / Proximal IBA1+ area / Total IBA1+ area: normalized by total area, mean + SEM", "procedure": "Amyloid plaques were stained using the same antibody and the microglia cells were detected using a rabbit anti-IBA1 antibody (reference 019-19741) from Wako Chemicals GmbH (Neuss, Germany) and diluted at 1/200 in antibody diluent. The staining protocol was exactly similar to the protocol for amyloid-beta plaques and astrocytes. The slides were scanned with the same settings.\nFor the beta-amyloid plaque and neuroinflammation analysis, the following sequence of steps was performed: • Slides were scanned with Hamamatsu Nanozoomer at 40× magnification. For each fluorescence labelling (DAPI, FITC and TRITC), a separate image was created • Manually outline ROIs (regions of interest) for defining cortex in brain sections for Aβ plaque assessment on the green FITC channel image, then use the resulting outline also for the other two channel images (copy resulting xml files) • Run the in-house developed ImageScope (V12.1.0.5029, Aperio Inc., USA) plug-in for creation and export of *.tif image tiles (at 10× magnification) for each of the 3 fluorescence channels\nImage Batch Processing: • Obtain the combined true color image (DAPI, FITC, TRITC) for each section through accessing each individual fluorescence channel image • Segmentation of valid sample (within outlined ROI) from black unstained background • Apply adaptive thresholding technique for segmentation of objects in green channel image\n(FITC-labeled Aβ plaques) • Separation of touching objects for correct subsequent individual object analysis after elimination of too small debris showing signal in the green (FITC) channel • Segmentation of TRITC-labeled objects in red channel (specific for GFAP or Iba1 staining indicating astrocytes or microglia) through morphological tophat transformation and thresholding • Feature based object classification\nComputation of several morphometric and densitometric features for valid plaques • Number of plaques • “Specific optical density” which has been described to reflect the amount of protein (antigen) concentration, based on measuring and using the staining intensity of an appropriate antibody in a non-linear way (Rahier et al., 1989; Ruifrok et al., 2001) • assessment of “plaque-associated GFAP or Iba1” based on the ratio of TRITC+ signal vs plaque area, “proximal GFAP or Iba1” based on ratio of TRITC+ signal within dilation ring around plaque"}}, "data": [{"molecule": "C[C@@]1(c2nc(NC(=O)c3ncc(C(F)(F)F)cc3Cl)ccc2F)CO[C@@](C)(C(F)(F)F)C(N)=N1", "note": "[Compound 1, N-(6-((3R,6R)-5-amino-3,6-dimethyl-6-(trifluoromethyl)-3,6-dihydro-2H-1,4-oxazin-3-yl)-5-fluoropyridin-2-yl)-3-chloro-5-(trifluoromethyl)picolinamide]", "values": [{"measurement": "Aβ42 % change from baseline, Mean (SD)", "setting": "Aβ42 [1]; 10 mg, E4 heterozygotes", "result": "−59 (11) %"}, {"measurement": "Aβ42 % change from baseline, Median", "setting": "Aβ42 [1]; 10 mg, E4 heterozygotes", "result": "−64", "unit": "%"}, {"measurement": "Aβ42 % change from baseline, Mean (SD)", "setting": "Aβ42 [1]; 10 mg, E4 non-carriers", "result": "−58 (11) %"}, {"measurement": "Aβ42 % change from baseline, Median", "setting": "Aβ42 [1]; 10 mg, E4 non-carriers", "result": "−59", "unit": "%"}, {"measurement": "Aβ42 % change from baseline, Mean (SD)", "setting": "Aβ42 [1]; 30 mg, E4 non-carriers", "result": "−80 (6) %"}, {"measurement": "Aβ42 % change from baseline, Median", "setting": "Aβ42 [1]; 30 mg, E4 non-carriers", "result": "−82", "unit": "%"}, {"measurement": "Aβ42 % change from baseline, Mean (SD)", "setting": "Aβ42 [1]; 90 mg, E4 heterozygotes", "result": "−87 (2) %"}, {"measurement": "Aβ42 % change from baseline, Median", "setting": "Aβ42 [1]; 90 mg, E4 heterozygotes", "result": "−87", "unit": "%"}, {"measurement": "Aβ42 % change from baseline, Mean (SD)", "setting": "Aβ42 [1]; 90 mg, E4 non-carriers", "result": "−86 (5) %"}, {"measurement": "Aβ42 % change from baseline, Median", "setting": "Aβ42 [1]; 90 mg, E4 non-carriers", "result": "−87", "unit": "%"}, {"measurement": "Aβ42 % change from baseline, Mean (SD)", "setting": "Aβ42 [1]; 300 mg, E4 heterozygotes (n 1)", "result": "−89", "unit": "%"}, {"measurement": "Aβ42 % change from baseline, Median", "setting": "Aβ42 [1]; 300 mg, E4 heterozygotes (n 1)", "result": "−89", "unit": "%"}, {"measurement": "Aβ42 % change from baseline, Mean (SD)", "setting": "Aβ42 [1]; 300 mg, E4 non-carriers", "result": "−92 (1) %"}, {"measurement": "Aβ42 % change from baseline, Median", "setting": "Aβ42 [1]; 300 mg, E4 non-carriers", "result": "−91", "unit": "%"}, {"measurement": "safety and tolerability", "setting": "[2]; 300 mg QD over two weeks (highest tested)", "result": "safe and tolerated"}, {"measurement": "safety and tolerability", "setting": "[2]; 750 mg single dose (highest tested)", "result": "safe and tolerated"}, {"measurement": "sAPPα change vs vehicle", "setting": "sAPPα; 0.03 g/kg vs vehicle", "result": "+44%"}, {"measurement": "increase in sAPPα", "setting": "sAPPα; 0.3 g/kg dose", "result": 3, "unit": "fold"}, {"measurement": "sAPPα change vs vehicle", "setting": "sAPPα; 0.3 g/kg vs vehicle", "result": "+279.8%"}, {"measurement": "Formic acid soluble Aβ42 change vs vehicle", "setting": "Aβ42 [3]; APP23, 0.03 g/kg vs vehicle", "result": "−16.3", "unit": "%"}, {"measurement": "Formic acid soluble Aβ42 change vs vehicle", "setting": "Aβ42 [3]; APP23, 0.3 g/kg vs vehicle", "result": "−86.2", "unit": "%"}, {"measurement": "Distal IBA1+ area", "setting": "IBA1 positive microglia; APP23, 0.03 g/kg food", "result": "2.74 ± 0.42"}, {"measurement": "Non-plaque-associated IBA1+ area*", "setting": "IBA1 positive microglia; APP23, 0.03 g/kg food", "result": "3.98 ± 0.54"}, {"measurement": "Plaque-associated IBA1+ area", "setting": "IBA1 positive microglia; APP23, 0.03 g/kg food", "result": "1.79 ± 0.51"}, {"measurement": "Proximal IBA1+ area", "setting": "IBA1 positive microglia; APP23, 0.03 g/kg food", "result": "1.23 ± 0.22"}, {"measurement": "Total IBA1+ area", "setting": "IBA1 positive microglia; APP23, 0.03 g/kg food", "result": "5.76 ± 0.83"}, {"measurement": "Distal IBA1+ area, change vs vehicle", "setting": "IBA1 positive microglia; APP23, 0.03 g/kg vs vehicle", "result": "−28.9", "unit": "%"}, {"measurement": "Non-plaque-associated IBA1+ area*, change vs vehicle", "setting": "IBA1 positive microglia; APP23, 0.03 g/kg vs vehicle", "result": "−39.2", "unit": "%"}, {"measurement": "Plaque-associated IBA1+ area, change vs vehicle", "setting": "IBA1 positive microglia; APP23, 0.03 g/kg vs vehicle", "result": "−40.5", "unit": "%"}, {"measurement": "Proximal IBA1+ area, change vs vehicle", "setting": "IBA1 positive microglia; APP23, 0.03 g/kg vs vehicle", "result": "−47.4", "unit": "%"}, {"measurement": "Total IBA1+ area, change vs vehicle", "setting": "IBA1 positive microglia; APP23, 0.03 g/kg vs vehicle", "result": "−37.4", "unit": "%"}, {"measurement": "Distal IBA1+ area", "setting": "IBA1 positive microglia; APP23, 0.3 g/kg food", "result": "5.05 ± 0.98"}, {"measurement": "Non-plaque-associated IBA1+ area*", "setting": "IBA1 positive microglia; APP23, 0.3 g/kg food", "result": "5.70 ± 1.00"}, {"measurement": "Plaque-associated IBA1+ area", "setting": "IBA1 positive microglia; APP23, 0.3 g/kg food", "result": "0.88 ± 0.19"}, {"measurement": "Proximal IBA1+ area", "setting": "IBA1 positive microglia; APP23, 0.3 g/kg food", "result": "0.65 ± 0.05"}, {"measurement": "Total IBA1+ area", "setting": "IBA1 positive microglia; APP23, 0.3 g/kg food", "result": "6.31 ± 0.92"}, {"measurement": "Distal IBA1+ area, change vs vehicle", "setting": "IBA1 positive microglia; APP23, 0.3 g/kg vs vehicle", "result": "+30.7%"}, {"measurement": "Non-plaque-associated IBA1+ area*, change vs vehicle", "setting": "IBA1 positive microglia; APP23, 0.3 g/kg vs vehicle", "result": "−8.2", "unit": "%"}, {"measurement": "Plaque-associated IBA1+ area, change vs vehicle", "setting": "IBA1 positive microglia; APP23, 0.3 g/kg vs vehicle", "result": "−70.6", "unit": "%"}, {"measurement": "Proximal IBA1+ area, change vs vehicle", "setting": "IBA1 positive microglia; APP23, 0.3 g/kg vs vehicle", "result": "−72.2", "unit": "%"}, {"measurement": "Total IBA1+ area, change vs vehicle", "setting": "IBA1 positive microglia; APP23, 0.3 g/kg vs vehicle", "result": "−28.5", "unit": "%"}]}]}
